Patent publication US20210254056A1, “IDENTIFICATION AND TARGETED MODULATION OF GENE SIGNALING NETWORKS” (CAMP4 THERAPEUTICS CORPORATION, priority 2017, published 2021)

Experiments:
[1] = test system: primary human hepatocytes; experiment: RNA-seq of primary human hepatocytes treated with 39 small molecules (pilot and validation)
hepatocytes = experiment: RNA-seq of hepatocytes treated with Phase III failure compounds; settings: hepatocytes
Procedure: RNA-seq was performed to determine the effects of the compounds on hepatocytes.
Significance was determined by the criteria of FPKM≥0.5, a log 2(fold-change)≥1, and a […].

## CCCc1cc(=O)[nH]c(=S)[nH]1 [MT-127, Propylthiouracil]
[1]; RNA-seq, p-value≤0.05, primary human hepatocytes, the modulated genes are listed in the block
  significant modulation of gene expression: significantly (p-value≤0.05) modulate
[1]; pilot RNA-seq study of Example 2, significance: FPKM≥0.5, log 2(fold change)≥1, q-value ≤0.05
  Number (#) of genes having significantly changed expression: 8

## COc1nc(C)cnc1NS(=O)(=O)c1cccnc1-c1ccc(-c2nnco2)cc1 [Zibotentan]
hepatocytes; RNA-seq, Phase III failure compounds, significance: FPKM≥0.5, log 2(fold-change)≥1, q-value≥0.05 (so in the source)
  Number (#) of genes having significantly changed expression: 505
hepatocytes; RNA-seq, q≤0.05, genes in the value or listed in the block
  significant modulation of expression of disease genes: significantly (q≤0.05) modulate expression
hepatocytes; gene B2M
  B2M expression, RNA-seq result: −0.49
hepatocytes; gene B9D2
  B9D2 expression, RNA-seq result: −0.43
hepatocytes; gene BAAT
  BAAT expression, RNA-seq result: 0.17
hepatocytes; gene BBOX1
  BBOX1 expression, RNA-seq result: −0.45
hepatocytes; gene BBS10
  BBS10 expression, RNA-seq result: 0.26
hepatocytes; gene BCHE
  BCHE expression, RNA-seq result: 0.02
hepatocytes; gene BCKDHB
  BCKDHB expression, RNA-seq result: −0.16
hepatocytes; gene BCKDK
  BCKDK expression, RNA-seq result: −0.21
hepatocytes; gene BCO1
  BCO1 expression, RNA-seq result: −0.38
hepatocytes; gene BCR
  BCR expression, RNA-seq result: 0.14
hepatocytes; gene BLNK
  BLNK expression, RNA-seq result: 0.09
hepatocytes; gene BLOC1S3
  BLOC1S3 expression, RNA-seq result: 0.15
hepatocytes; gene BMPR1A
  BMPR1A expression, RNA-seq result: 0.51
hepatocytes; gene BRAF
  BRAF expression, RNA-seq result: 0.82
hepatocytes; gene BSCL2
  BSCL2 expression, RNA-seq result: −3.20
hepatocytes; gene BTD
  BTD expression, RNA-seq result: 0.19
hepatocytes; gene C4A
  C4A expression, RNA-seq result: 0.20
hepatocytes; gene C9
  C9 expression, RNA-seq result: −0.13
hepatocytes; gene C10orf10
  C10orf10 expression, RNA-seq result: −0.49
hepatocytes; gene C10orf11
  C10orf11 expression, RNA-seq result: −0.62
hepatocytes; gene C15orf41
  C15orf41 expression, RNA-seq result: 0.50
hepatocytes; gene CA2
  CA2 expression, RNA-seq result: −0.44
hepatocytes; gene CA5A
  CA5A expression, RNA-seq result: 0.23
hepatocytes; gene CA12
  CA12 expression, RNA-seq result: 0.06
hepatocytes; gene CAV1
  CAV1 expression, RNA-seq result: 0.15
hepatocytes; gene CCND1
  CCND1 expression, RNA-seq result: 0.25
hepatocytes; gene CD46
  CD46 expression, RNA-seq result: 0.05
hepatocytes; gene CD81
  CD81 expression, RNA-seq result: −0.76
hepatocytes; gene CD320
  CD320 expression, RNA-seq result: −0.95
hepatocytes; gene CDAN1
  CDAN1 expression, RNA-seq result: 0.10
hepatocytes; gene CDH1
  CDH1 expression, RNA-seq result: 0.50
hepatocytes; gene CEP19
  CEP19 expression, RNA-seq result: −0.43
hepatocytes; gene CEP83
  CEP83 expression, RNA-seq result: 0.33
hepatocytes; gene CEP164
  CEP164 expression, RNA-seq result: 0.05
hepatocytes; gene CEP290
  CEP290 expression, RNA-seq result: 0.01
hepatocytes; gene CFB
  CFB expression, RNA-seq result: −0.28
hepatocytes; gene CFHR2
  CFHR2 expression, RNA-seq result: −0.93
hepatocytes; gene CHRM3
  CHRM3 expression, RNA-seq result: 0.20
hepatocytes; gene CIDEC
  CIDEC expression, RNA-seq result: −0.40
hepatocytes; gene CLDN1
  CLDN1 expression, RNA-seq result: 0.16
hepatocytes; gene COG1
  COG1 expression, RNA-seq result: 0.25
